In patent US11744816B2, “Fixed dose combinations and formulations comprising ETC1002 and ezetimibe and methods of treating or reducing the risk of cardiovascular disease” (Esperion Therapeutics, Inc., priority 2015, dated 2023):
Entries after “also recorded” stand apart in the source; their conditions may differ.

Legend:
[1] = tested on: hypercholesterolemic patients; assay: Phase 2b double-blind trial: percent changes from baseline to week 12 in lipids and CRP; type: in vivo, human; conditions: for Percent change from baseline to week 12 in Apolipoprotein A-I / Percent change from baseline to week 12 in Apolipoprotein B / Percent change from baseline to week 12 in HDL particle number / Percent change from baseline to week 12 in HDL-C / Percent change from baseline to week 12 in LDL particle number / Percent change from baseline to week 12 in LDL-C / Percent change from baseline to week 12 in Non-HDL-C / Percent change from baseline to week 12 in Total cholesterol / Percent change from baseline to week 12 in VLDL particle number: 12 weeks, mITT; for Percent change from baseline to week 12 in Apolipoprotein A-I / Percent change from baseline to week 12 in Apolipoprotein B / Percent change from baseline to week 12 in HDL particle number / Percent change from baseline to week 12 in HDL-C / Percent change from baseline to week 12 in LDL particle number / Percent change from baseline to week 12 in LDL-C / Percent change from baseline to week 12 in Non-HDL-C / Percent change from baseline to week 12 in Total cholesterol: LS mean ± SE; for Percent change from baseline to week 12 in VLDL particle number: median (interquartile range)
Experimental: LDL-C was calculated using the Friedewald equation.
The primary endpoint was the percent change from baseline to week 12 in calculated LDL-C in patients treated with ETC-1002 monotherapy versus those treated with EZE alone. Secondary endpoints included the dose-response relationship between ETC-1002 and the percent change in LDL-C from baseline to week 12, the percent change in LDL-C from baseline to week 12 in patients treated with ETC-1002 plus EZE versus those treated with EZE alone, and the percent change from baseline to week 12 for all treatment groups in LDL particle number, apolipoprotein B, total cholesterol, non-high-density lipoprotein cholesterol (non-HDL-C), HDL-C, HDL particle number, apolipoprotein A-I, triglycerides, very-low-density lipoprotein (VLDL) particle number, and high-sensitivity C-reactive protein (CRP). Lipoprotein particle number was measured using nuclear magnetic resonance […].
An analysis of covariance was used to compare each ETC-1002 treatment group with EZE monotherapy for each of the efficacy endpoints. The primary model included the effects of treatment and statin intolerance and the baseline value as a covariate. Baseline was defined as the mean of values from weeks −1 and 0 for LDL-C, non-HDL-C, total cholesterol, HDL-C, and triglycerides. For all other lipid and biomarker measures, baseline was defined as the last value before the first dose of study drug. Missing values at week 12 were imputed using the last-observation-carried-forward procedure. When LDL-C could not be calculated (i.e., triglycerides >400 mg/dL), beta-quantification measurements were used to determine LDL-C values. Least-squares (LS) means and standard errors were obtained for each treatment group; differences in LS means and p-values were obtained for the treatment comparisons. Graphical methods (e.g., normal probability plot and histogram of residuals, plot of residuals vs. predicted values) or analytical methods (e.g., Shapiro-Wilk test), or both, were used to assess the model assumptions. Because of departures from normality observed in the parameters of triglycerides, CRP, and VLDL particle number, nonparametric analyses were performed for these measures, with p-values obtained from the Wilcoxon rank-sum test and median values presented.
Percent changes from baseline in LDL-C also were summarized by statin-tolerance subgroup. To assess the dose-response relationship for ETC-1002 monotherapy, the primary analysis of covariance model was used for the comparison of the ETC-1002 120 mg and ETC-1002 180 mg. Statistical testing of the efficacy endpoints was 2-sided and conducted at the 5% level of significance with no adjustment for multiple comparisons.

[2] = tested on: hypercholesterolemic patients; assay: Phase 2b double-blind trial: safety, treatment-emergent adverse events and laboratory abnormalities; conditions: for Most common AEs: ALT increased / Most common AEs: AST increased / Most common AEs: Arthralgia / Most common AEs: Back pain / Most common AEs: Blood CK increased / Most common AEs: Constipation / Most common AEs: Headache / Most common AEs: Myalgia / Most common AEs: Nasopharyngitis / Most common AEs: Upper respiratory tract infection / Most common AEs: Urinary tract infection / Treatment-emergent AEs: Any AE(s) / Treatment-emergent AEs: Discontinuation due to AE(s) / Treatment-emergent AEs: Serious AE(s) / Treatment-emergent AEs: Study drug-related AE(s) / Any muscle-related AE / Muscle-related AE leading to discontinuation / Muscle-related AEs: Muscle spasms / Muscle-related AEs: Muscular weakness / Muscle-related AEs: Musculoskeletal chest pain / Muscle-related AEs: Musculoskeletal stiffness / Muscle-related AEs: Myalgia / Muscle-related AEs: Pain in extremity / Muscle-related AEs: Sensation of heaviness / Muscle-related AEs: Musculoskeletal pain: 12 weeks; for Most common AEs: ALT increased / Most common AEs: AST increased / Most common AEs: Arthralgia / Most common AEs: Back pain / Most common AEs: Blood CK increased / Most common AEs: Constipation / Most common AEs: Headache / Most common AEs: Myalgia / Most common AEs: Nasopharyngitis / Most common AEs: Upper respiratory tract infection / Most common AEs: Urinary tract infection / Treatment-emergent AEs: Any AE(s) / Treatment-emergent AEs: Discontinuation due to AE(s) / Treatment-emergent AEs: Serious AE(s) / Treatment-emergent AEs: Study drug-related AE(s): safety population; for Myalgia, patients affected: entire study population
Experimental: The study population included both statin-tolerant and statin-intolerant participants. Statin intolerance was defined as the inability to tolerate ≥2 statins because of muscle-related symptoms such as pain, weakness, or cramping that began or increased during statin therapy and resolved on statin discontinuation. At least 1 statin must have been administered at the lowest approved daily dose, defined as rosuvastatin 5 mg, atorvastatin 10 mg, simvastatin 10 mg, lovastatin 20 mg, pravastatin 40 mg, fluvastatin 40 mg, or pitavastatin 2 mg. Treatment with less than the lowest approved daily dose of a statin (i.e., skipping days) was considered equivalent to not tolerating 1 statin at the lowest approved daily dose.
Patients underwent a 5-week washout of all lipid-regulating drugs and dietary supplements and abstained from these drugs and supplements throughout the study. Patients also underwent a 5-week patient-only-blinded placebo run-in during the screening period (week −5 to week 0). This single-blind placebo run-in period was used to eliminate patients with muscle-related AEs during placebo treatment. Patients reporting new or worsening, unexplained muscle-related AEs during this run-in period were excluded from the study.
Patients were stratified (1:1) by history of statin intolerance and randomized at week 0 in a 4:4:4:1:1 ratio to once-daily treatment with capsules containing ETC-1002 120 mg, ETC-1002 180 mg, EZE, ETC-1002 120 mg plus EZE, or ETC-1002 180 mg plus EZE.
The safety of ETC-1002 was assessed using treatment-emergent AEs; hematology, serum chemistry, and urinalysis laboratory values; physical examination findings, vital sign measurements, electrocardiogram (ECG) readings; weight; and ankle and waist circumference measurements. AEs were coded using the Medical Dictionary for Regulatory Activities version 16.0 and evaluated by the investigator for severity and relation to study drug. Muscle-related AEs were defined as those from the system organ class of musculoskeletal and connective tissue disorders, except for those that were not obviously muscle related Terms included in the muscle-related AFE analysis were selected from this system organ class after database lock and before unblinding.
Safety analyses were performed on the safety population, which included randomized patients who received at least 1 dose of study drug. Baseline patient characteristics were summarized for the safety population by treatment group and statin-tolerance subgroup.
Muscle-related AEs also were summarized by statin-tolerance subgroup.

[3] = ETC-1002 120 mg once daily, statin-intolerant patients
[4] = ETC-1002 120 mg once daily, statin-tolerant patients
[5] = ETC-1002 180 mg once daily, statin-intolerant patients
[6] = ETC-1002 180 mg once daily, statin-tolerant patients

## CC(C)(CCCCCC(O)CCCCCC(C)(C)C(=O)O)C(=O)O [ETC-1002, 8-hydroxy-2,2,14,14 tetramethylpentadecanedioic acid]
[1]; ETC-1002 120 mg
  Decrease in median CRP from baseline to week 12 endpoint: 30%
[1]; ETC-1002 120 mg alone
  LDL-C reduction from baseline to week 12: 27%
[1]; ETC-1002 120 mg once daily
  Percent change from baseline to week 12 in Apolipoprotein A-I: −0.2 ± 1.1%
  Percent change from baseline to week 12 in Apolipoprotein B: −19.3 ± 1.3 %
  Percent change from baseline to week 12 in HDL particle number: 5.0 ± 1.3%
  Percent change from baseline to week 12 in HDL-C: −5.8 ± 1.4 %
  Percent change from baseline to week 12 in LDL particle number: −21.8 ± 1.7 %
  Percent change from baseline to week 12 in LDL-C: −27.5 ± 1.3 %
  Percent change from baseline to week 12 in Non-HDL-C: −23.2 ± 1.2 %
  Percent change from baseline to week 12 in Total cholesterol: −19.3 ± 0.9 %
  Percent change from baseline to week 12 in VLDL particle number: −2.7 (68.5) %
[1]; ETC-1002 180 mg
  Decrease in median CRP from baseline to week 12 endpoint: 40%
[1]; ETC-1002 180 mg alone
  LDL-C reduction from baseline to week 12: 30%
[1]; ETC-1002 180 mg once daily
  Percent change from baseline to week 12 in Apolipoprotein A-I: 0.1 ± 1.2%
  Percent change from baseline to week 12 in Apolipoprotein B: −21.3 ± 1.3 %
  Percent change from baseline to week 12 in HDL particle number: 6.2 ± 1.4%
  Percent change from baseline to week 12 in HDL-C: −4.8 ± 1.4 %
  Percent change from baseline to week 12 in LDL particle number: −24.6 ± 1.8 %
  Percent change from baseline to week 12 in LDL-C: −30.1 ± 1.3 %
  Percent change from baseline to week 12 in Non-HDL-C: −25.3 ± 1.1 %
  Percent change from baseline to week 12 in Total cholesterol: −20.7 ± 0.9 %
  Percent change from baseline to week 12 in VLDL particle number: 15.3 (80.5) %
[1]; ETC-1002 alone (120 mg or 180 mg), up to
  LDL-C reduction from baseline to week 12: up to 30%
[2]; ETC-1002 120 mg
  Alanine aminotransferase or aspartate aminotransferase, or both, increased >3 times the upper limit of normal at any measurement: 1 patients
  Serious AEs reported (events): hemothorax; also recorded: sudden death
  Myalgia, patients affected: 3%
[2]; ETC-1002 120 mg once daily
  Most common AEs: ALT increased: 0 n (%)
  Most common AEs: AST increased: 0 n (%)
  Most common AEs: Arthralgia: 4 (4%) n (%)
  Most common AEs: Back pain: 1 (1%) n (%)
  Most common AEs: Blood CK increased: 1 (1%) n (%)
  Most common AEs: Constipation: 3 (3%) n (%)
  Most common AEs: Headache: 3 (3%) n (%)
  Most common AEs: Myalgia: 3 (3%) n (%)
  Most common AEs: Nasopharyngitis: 3 (3%) n (%)
  Most common AEs: Upper respiratory tract infection: 6 (6%) n (%)
  Most common AEs: Urinary tract infection: 0 n (%)
  Treatment-emergent AEs: Any AE(s): 50 (51%) n (%)
  Treatment-emergent AEs: Discontinuation due to AE(s): 3 (3%) n (%)
  Treatment-emergent AEs: Serious AE(s): 2 (2%) n (%)
  Treatment-emergent AEs: Study drug-related AE(s): 13 (13%) n (%)
[2]; [3]
  Any muscle-related AE: 7 (14%) n (%)
  Muscle-related AE leading to discontinuation: 1 (2%) n (%)
  Muscle-related AEs: Muscle spasms: 3 (6%) n (%)
  Muscle-related AEs: Muscular weakness: 2 (4%) n (%)
  Muscle-related AEs: Musculoskeletal chest pain: 0 n (%)
  Muscle-related AEs: Musculoskeletal stiffness: 0 n (%)
  Muscle-related AEs: Myalgia: 2 (4%) n (%)
  Muscle-related AEs: Pain in extremity: 1 (2%) n (%)
  Muscle-related AEs: Sensation of heaviness: 0 n (%)
[2]; [4]
  Any muscle-related AE: 1 (2%) n (%)
  Muscle-related AE leading to discontinuation: 0 n (%)
  Muscle-related AEs: Muscle spasms: 0 n (%)
  Muscle-related AEs: Musculoskeletal pain: 0 n (%)
  Muscle-related AEs: Myalgia: 1 (2%) n (%)
[2]; ETC-1002 180 mg
  Alanine aminotransferase or aspartate aminotransferase, or both, increased >3 times the upper limit of normal at any measurement: 2 patients
  Serious AEs reported (events): pancreatitis relapse
  Myalgia, patients affected: 1%
[2]; ETC-1002 180 mg once daily
  Most common AEs: ALT increased: 0 n (%)
  Most common AEs: AST increased: 0 n (%)
  Most common AEs: Arthralgia: 1 (1%) n (%)
  Most common AEs: Back pain: 1 (1%) n (%)
  Most common AEs: Blood CK increased: 4 (4%) n (%)
  Most common AEs: Constipation: 1 (1%) n (%)
  Most common AEs: Headache: 2 (2%) n (%)
  Most common AEs: Myalgia: 1 (1%) n (%)
  Most common AEs: Nasopharyngitis: 5 (5%) n (%)
  Most common AEs: Upper respiratory tract infection: 6 (6%) n (%)
  Most common AEs: Urinary tract infection: 4 (4%) n (%)
  Treatment-emergent AEs: Any AE(s): 55 (55%) n (%)
  Treatment-emergent AEs: Discontinuation due to AE(s): 6 (6%) n (%)
  Treatment-emergent AEs: Serious AE(s): 1 (1%) n (%)
  Treatment-emergent AEs: Study drug-related AE(s): 18 (18%) n (%)
[2]; [5]
  Any muscle-related AE: 6 (12%) n (%)
  Muscle-related AE leading to discontinuation: 2 (4%) n (%)
  Muscle-related AEs: Muscle spasms: 2 (4%) n (%)
  Muscle-related AEs: Muscular weakness: 1 (2%) n (%)
  Muscle-related AEs: Musculoskeletal chest pain: 1 (2%) n (%)
  Muscle-related AEs: Musculoskeletal stiffness: 0 n (%)
  Muscle-related AEs: Myalgia: 1 (2%) n (%)
  Muscle-related AEs: Pain in extremity: 1 (2%) n (%)
  Muscle-related AEs: Sensation of heaviness: 0 n (%)
[2]; [6]
  Any muscle-related AE: 0 n (%)
  Muscle-related AE leading to discontinuation: 0 n (%)
  Muscle-related AEs: Muscle spasms: 0 n (%)
  Muscle-related AEs: Musculoskeletal pain: 0 n (%)
  Muscle-related AEs: Myalgia: 0 n (%)
